Earlier results in patent publication US8986935B2, “Methods for treating spinal muscular atrophy” (PTC Therapeutics, Inc., priority 2008, dated 2015).

Test system: SMN protein

## CC[C@@]1(O)C[C@H](O[C@H]2C[C@H](N(C)C)[C@H](O[C@H]3C[C@H](O)[C@H](O[C@H]4CCC(=O)[C@H](C)O4)[C@H](C)O3)[C@H](C)O2)c2c(cc3c(c2O)C(=O)c2c(O)cccc2C3=O)[C@H]1C(=O)OC [aclarubicin]
  SMN protein in cell culture: increase SMN protein
